This note sets out measurements from US10287301B2 (Achillion Pharmaceuticals, Inc., priority 2015, dated 2019).

The structures appear in SMILES notation.

Chain of Human Factor D (P00746 26-253): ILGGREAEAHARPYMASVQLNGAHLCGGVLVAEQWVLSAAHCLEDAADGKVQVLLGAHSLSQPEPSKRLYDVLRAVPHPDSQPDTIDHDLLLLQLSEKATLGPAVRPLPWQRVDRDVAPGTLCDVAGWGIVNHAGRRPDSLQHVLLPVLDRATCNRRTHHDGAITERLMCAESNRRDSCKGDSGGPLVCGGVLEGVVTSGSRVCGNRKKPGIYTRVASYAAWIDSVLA

The first experiment addresses Human Factor D (Homo sapiens (Human), UniProt P00746). Description: Human Factor D Assay. It is filed as biochemical. The following applies: Human Factor D assay of Example 8; Table 2; read-out: IC50. The method in brief:
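IC50 values derive from nonlinear regression of Factor D reaction rates against compound concentration. The enzyme, purified from human serum, is used at 80 nM final with a 5 min room-temperature compound preincubation in 50 mM Tris, 1M NaCl, pH 7.5, before 100 μM Z-L-Lys-SBzl plus 100 μM DTNB are added.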
With `CC(=O)c1nn(CC(=O)N2C[C@H](F)C[C@H]2C(=O)Nc2cncc(C(F)(F)F)n2)c2ccc(-c3cnc4cc(C)nn4c3)cc12` [Compound 313, (2S,4R)-1-(2-(3-acetyl-5-(2-methylpyrazolo[1,5-a]pyrimidin-6-yl)-1H-indazol-1-yl)acetyl)-4-fluoro-N-(6-(trifluoromethyl)pyrazin-2-yl)pyrrolidine-2-carboxamide], the IC50 is less than 1000 nM.
The same measure, in the same setting: for `Cc1ncc(-c2cc3c(s2)c(C(N)=O)nn3CC(=O)N2C[C@H](F)C[C@H]2C(=O)Nc2cccc(-c3ccccc3Cl)c2F)cn1` [Compound 314, 1-(2-((2S,4R)-2-((2′-Chloro-2-fluoro-[1,1′-biphenyl]-3-yl)carbamoyl)-4-fluoropyrrolidin-1-yl)-2-oxoethyl)-5-(2-methylpyrimidin-5-yl)-1H-thieno[3,2-c]pyrazole-3-carboxamide] the value was less than 1000 nM.
Same read-out and setting: for `CC(=O)c1nn(CC(=O)N2CC[C@@H](O)[C@H]2C(=O)Nc2cccc(Br)n2)c2ccc(-c3cnc(C)nc3)cc12` [Compound 315, (2S,3R)-1-(2-(3-acetyl-5-(2-methylpyrimidin-5-yl)-1H-indazol-1-yl)acetyl)-N-(6-bromopyridin-2-yl)-3-hydroxypyrrolidine-2-carboxamide] the value was less than 1000 nM.
With `COCCOCCOCCOCCOCCOc1ncc(-c2ccc3c(c2)c(C(C)=O)nn3CC(=O)N2C[C@H](F)C[C@H]2C(=O)Nc2cccc(Br)n2)cn1` [Compound 316], the concentration for half-maximal inhibition (IC50) is less than 1000 nM.
Same read-out and setting: for `CC(=O)c1nn(CC(=O)N2C[C@H](F)C[C@H]2C(=O)Nc2cncc(Br)n2)c2ccc(-c3cnc(C)nc3)cc12` [Compound 317, (2S,4R)-1-(2-(3-acetyl-5-(2-methylpyrimidin-5-yl)-1H-indazol-1-yl)acetyl)-N-(6-bromopyrazin-2-yl)-4-fluoropyrrolidine-2-carboxamide] the value was less than 1000 nM; for `COc1cc2c(cc1-c1cnc(C)nc1)c(C(C)=O)cn2CC(=O)N1C[C@H](F)C[C@H]1C(=O)Nc1cccc(-c2ccccc2Cl)c1F` [Compound 318, (2S,4R)-1-(2-(3-Acetyl-6-methoxy-5-(2-methylpyrimidin-5-yl)-1H-indol-1-yl)acetyl)-N-(2′-chloro-2-fluoro-[1,1′-biphenyl]-3-yl)-4-fluoropyrrolidine-2-carboxamide], less than 1000 nM; for `COc1cc2c(cc1-c1cnc(C)nc1)c(C(C)=O)cn2CC(=O)N1C[C@H](F)C[C@H]1C(=O)Nc1cccc(Br)n1` [Compound 319, (2S,4R)-1-(2-(3-Acetyl-6-methoxy-5-(2-methylpyrimidin-5-yl)-1H-indol-1-yl)acetyl)-N-(6-bromopyridin-2-yl)-4-fluoropyrrolidine-2-carboxamide], less than 1000 nM.
As for `CC(=O)c1cn(CC(=O)N2C[C@H](F)C[C@H]2C(=O)Nc2cccc(-c3ccccc3Cl)c2F)c2cc(O)c(-c3cnc(C)nc3)cc12` [Compound 320, (4R)-1-(2-(3-Acetyl-6-hydroxy-5-(2-methylpyrimidin-5-yl)-1H-indol-1-yl)acetyl)-N-(2′-chloro-2-fluoro-[1,1′-biphenyl]-3-yl)-4-fluoropyrrolidine-2-carboxamide], the IC50 is less than 1000 nM.
As for `CC(=O)c1nn(CC(=O)N2C[C@H](F)C[C@H]2C(=O)Nc2cccc(Br)n2)c2ccc(-c3cnc4nc(C)ccn34)cc12` [Compound 321, (2S,4R)-1-(2-(3-acetyl-5-(7-methylimidazo[1,2-a]pyrimidin-3-yl)-1H-indazol-1-yl)acetyl)-N-(6-bromopyridin-2-yl)-4-fluoropyrrolidine-2-carboxamide], the IC50 was less than 1000 nM.
Regarding `CC(=O)c1nn(CC(=O)N2C[C@H](F)C[C@H]2C(=O)Nc2cncc(Br)n2)c2ccc(-c3cnc4ccnn4c3)cc12` [Compound 322, (2S,4R)-1-(2-(3-acetyl-5-(pyrazolo[1,5-a]pyrimidin-6-yl)-1H-indazol-1-yl)acetyl)-N-(6-bromopyrazin-2-yl)-4-fluoropyrrolidine-2-carboxamide], the IC50 was less than 1000 nM.
Same read-out and setting: to `CC(=O)c1cn(CC(=O)N2C[C@H](F)C[C@H]2C(=O)Nc2cncc(Br)n2)c2ccc(-c3cnc4ccnn4c3)cc12` [Compound 323, (2S,4R)-1-(2-(3-acetyl-5-(pyrazolo[1,5-a]pyrimidin-6-yl)-1H-indol-1-yl)acetyl)-N-(6-bromopyrazin-2-yl)-4-fluoropyrrolidine-2-carboxamide] belongs less than 1000 nM.
Still for that read-out and setting: to `CC(=O)c1nn(CC(=O)N2[C@@H]3C[C@@H]3C[C@H]2C(=O)Nc2cncc(Br)n2)c2ccc(-c3cnc4cc(C)nn4c3)cc12` [Compound 324, (1R,3S,5R)-2-(2-(3-acetyl-5-(2-methylpyrazolo[1,5-a]pyrimidin-6-yl)-1H-indazol-1-yl)acetyl)-N-(6-bromopyrazin-2-yl)-2-azabicyclo[3.1.0] hexane-3-carboxamide] belongs less than 1000 nM; to `CC(=O)c1nn(CC(=O)N2C[C@H](F)C[C@H]2C(=O)Nc2cncc(Br)n2)c2ccc(-c3ccc4nc(C)nn4c3)cc12` [Compound 325, (2S,4R)-1-(2-(3-acetyl-5-(2-methyl-[1,2,4]triazolo[1,5-a]pyridin-6-yl)-1H-indazol-1-yl)acetyl)-N-(6-bromopyrazin-2-yl)-4-fluoropyrrolidine-2-carboxamide], less than 1000 nM.
In the case of `CC(=O)c1nn(CC(=O)N2C[C@H](F)C[C@H]2C(=O)Nc2cccc(-c3sccc3Cl)c2F)c2ccc(-c3cnc(C)nc3)cc12` [Compound 327, (2S,4R)-1-(2-(3-acetyl-5-(2-methylpyrimidin-5-yl)-1H-indazol-1-yl)acetyl)-N-(3-(3-chlorothiophen-2-yl)-2-fluorophenyl)-4-fluoropyrrolidine-2-carboxamide], the concentration for half-maximal inhibition (IC50) is less than 1000 nM.
The same measure, in the same setting: to `CC(=O)c1cn(CC(=O)N2C[C@H](F)C[C@H]2C(=O)Nc2cccc(Br)n2)c2cc(O)c(-c3cnc(C)nc3)cc12` [Compound 328, (4R)-1-(2-(3-Acetyl-6-hydroxy-5-(2-methylpyrimidin-5-yl)-1H-indol-1-yl)acetyl)-N-(6-bromopyridin-2-yl)-4-fluoropyrrolidine-2-carboxamide] belongs less than 1000 nM; to `CC(=O)c1nn(CC(=O)N2CSC(C)(C)[C@H]2C(=O)NCc2cccc(Cl)c2F)c2ccc(-c3cnc(C)nc3)cc12` [Compound 329, (R)-3-(2-(3-acetyl-5-(2-methylpyrimidin-5-yl)-1H-indazol-1-yl)acetyl)-N-(3-chloro-2-fluorobenzyl)-5,5-dimethylthiazolidine-4-carboxamide], 1000 to 10000 nM.
On the same count and under the same terms, for `CC(=O)c1nn(CC(=O)N2C[C@H](F)C[C@H]2C(=O)Nc2cccc(OC(F)(F)F)n2)c2ccc(-c3cnc4cc(C)nn4c3)cc12` [Compound 330, (2S,4R)-1-(2-(3-acetyl-5-(2-methylpyrazolo[1,5-a]pyrimidin-6-yl)-1H-indazol-1-yl)acetyl)-4-fluoro-N-(6-(trifluoromethoxy)pyridin-2-yl)pyrrolidine-2-carboxamide] the value was less than 1000 nM; for `CC(=O)c1cn(CC(=O)N2[C@@H]3C[C@@H]3C[C@H]2C(=O)Nc2cncc(Br)n2)c2ccc(-c3cnc4cc(C)nn4c3)cc12` [Compound 331, (1R,3S,5R)-2-(2-(3-acetyl-5-(2-methylpyrazolo[1,5-a]pyrimidin-6-yl)-1H-indol-1-yl)acetyl)-N-(6-bromopyrazin-2-yl)-2-azabicyclo[3.1.0] hexane-3-carboxamide], less than 1000 nM; for `CC(=O)c1nn(CC(=O)N2C[C@H](F)C[C@H]2C(=O)Nc2cc(C)cc(Br)n2)c2ccc(-c3cnc4cc(C)nn4c3)cc12` [Compound 332, (2S,4R)-1-(2-(3-acetyl-5-(2-methylpyrazolo[1,5-a]pyrimidin-6-yl)-1H-indazol-1-yl)acetyl)-N-(6-bromo-4-methylpyridin-2-yl)-4-fluoropyrrolidine-2-carboxamide], less than 1000 nM.

Staying with this experiment, now noted: Table 3; Human Factor D 80 nM, substrate Z-L-Lys-SBzl; read-out: IC50 (Stars).
For the compound `CC(=O)c1cn(CC(=O)N2C[C@H](F)C[C@H]2C(=O)Nc2cccc(-c3ccccc3Cl)c2F)c2ccc(-c3cnc(O[C@@H]4CO[C@H]5[C@@H]4OC[C@H]5O)nc3)cc12` [Compound 333, (2S,4R)-1-(2-(3-acetyl-5-(2-(((3R,3aR,6R,6aR)-6-hydroxyhexahydrofuro [3,2-b]furan-3-yl)oxy)pyrimidin-5-yl)-1H-indol-1-yl)acetyl)-N-(2′-chloro-2-fluoro-[1,1′-biphenyl]-3-yl)-4-fluoropyrrolidine-2-carboxamide], the half-inhibitory concentration (IC50) was less than 1000 nM.
On the same count and under the same terms, to `CC(=O)c1cn(CC(=O)N2C[C@H](F)C[C@H]2C(=O)Nc2cccc(Br)n2)c2ccc(-c3cnc(O[C@@H]4CO[C@H]5[C@@H]4OC[C@H]5O)nc3)cc12` [Compound 334, (2S,4R)-1-(2-(3-acetyl-5-(2-(((3R,3aR,6R,6aR)-6-hydroxyhexahydrofuro [3,2-b]furan-3-yl)oxy)pyrimidin-5-yl)-1H-indol-1-yl)acetyl)-N-(6-bromopyridin-2-yl)-4-fluoropyrrolidine-2-carboxamide] belongs less than 1000 nM; to `CO[C@@H]1CO[C@H]2[C@@H]1OC[C@H]2Oc1ncc(-c2ccc3c(c2)c(C(C)=O)cn3CC(=O)N2C[C@H](F)C[C@H]2C(=O)Nc2cccc(-c3ccccc3Cl)c2F)cn1` [Compound 335], less than 1000 nM; to `CO[C@@H]1CO[C@H]2[C@@H]1OC[C@H]2Oc1ncc(-c2ccc3c(c2)c(C(C)=O)cn3CC(=O)N2C[C@H](F)C[C@H]2C(=O)Nc2cccc(Br)n2)cn1` [Compound 337, (2S,4R)-1-(2-(3-acetyl-5-(2-(((3R,3aR,6R,6aR)-6-methoxyhexahydrofuro [3,2-b]furan-3-yl)oxy)pyrimidin-5-yl)-1H-indol-1-yl)acetyl)-N-(6-bromopyridin-2-yl)-4-fluoropyrrolidine-2-carboxamide], less than 1000 nM.
Still for that read-out and setting: to `Cc1ncc(-c2ccc3c(c2)c(CC(N)=O)nn3CC(=O)N2C[C@H](F)C[C@H]2C(=O)Nc2cccc(Br)n2)cn1` [Compound 340, (2S,4R)-1-(2-(3-(2-amino-2-oxoethyl)-5-(2-methylpyrimidin-5-yl)-1H-indazol-1-yl)acetyl)-N-(6-bromopyridin-2-yl)-4-fluoropyrrolidine-2-carboxamide] belongs 1000 to 10000 nM.

As a reminder, the IC50 is the point on the concentration scale where inhibition reaches its midpoint.
